In patent publication US9850276B2, “Bidentate-binding modulators of LRRK2 and JNK kinases” (THE SCRIPPS RESEARCH INSTITUTE, priority 2013, dated 2017):

Experiments:
[1] = test system: cardiomyocyte apoptosis and infarct size; details: rats; cited from earlier work
[2] = test system: infarct size in rat hearts; assay: I/R MI rat model, 30 minutes ischemia and 24 hours reperfusion; type: in vivo; details: 5 mg/kg SR-3306; anesthetized rats; p<0.05
Description: The in vivo efficacy of SR-3306 in anesthetized rats after 30 minutes ischemia and 24 hours reperfusion was evaluated.

[3] = test system: H9c2 cells; assay: Cell viability under oxidative stress (Cell-Titer Glo luminescent assay); type: cell-based; details: 25 μM H2O2 + 500 nM SR-3306
Description: (§1) A similar effect was seen when mitochondrial membrane potential was measured by Rhodamine 123 detection. […] Similarly, both ROS generation and membrane depolarization effects elicited by oxidative stress in H92c cells were blocked by inhibition of JNK with the small molecule, SR-3306 (commercially available from Calbiochem). Finally, the effect of SR-3306 or Tat-Sab on cell viability in response to oxidative stress was measured by a Cell-Titer Glo luminescent assay. H9c2 cells treated with 25 μM H2O2 were ˜40% viable, whereas addition of 500 nM SR-3306 to cells treated with 25 μM H2O2 increased viability to ˜80%, and addition of 3 μM Tat-Sab peptide to cells treated with 25 μM H2O2 increased viability to ˜65% compared to 95% viable in untreated cells.

[4] = test system: H9c2 cells; assay: ROS generation under H2O2 oxidative stress; type: cell-based; details: 25 μM H2O2 + 500 nM SR-3306
Description: (§2) To test whether JNK mitochondrial localization had effects on mitochondrial function we measured the impact of Tat-Sab, and a small molecule JNK inhibitor, SR-3306 (commercially available from Calbiochem), on ROS generation and mitochondrial membrane depolarization in H9c2 cells treated with H2O2. The ROS fluorescence/cell in the absence of oxidative stress (PBS), was compared to treatment with either 25 μM H2O2, or 25 μM H2O2+500 nM SR-3306, or 25 μM H2O2+3 μM Tat-scramble peptide, or 25 μM H2O2+3 μM Tat-Sab peptide.

[5] = test system: H9c2 cells; assay: Mitochondrial membrane potential under H2O2 (Rhodamine 123 detection); type: cell-based; details: 25 μM H2O2
Description: as §2, §1

Structure (SMILES) | cardiomyocyte apoptosis and infarct size after I/R [1] | infarct size (IS) [2] | cell viability [3] [%] | reduction of ROS generation compared to 25 μM H2O2 treatment [4] [fold] | mitochondrial membrane potential perturbation / depolarization [5]
N#CC(c1ccnc(NCCc2cccnc2)n1)c1nc2ccccc2s1 (centres unmarked) [AS601245] | decreased cardiomyocyte apoptosis and infarct size | – | – | – | –
Cc1ccc(-c2ncn(-c3ccc(Nc4nccc(-c5cccc(N6CCOCC6)c5)n4)cc3)n2)cn1 [SR-3306] | – | 23±3.5 % of AAR | ~80 | ~2 | blocked
